From ChEMBL document CHEMBL6178020, “Harder than Metal: Challenging Antimicrobial Resistance with Metallo-β-lactamase Inhibitors” (J Med Chem, 2025)
Each block holds one molecule with its values, some of them ahead of it.

Columns and labels:
[1] = molecular target: T1, Metallo-beta-lactamase type 2 (Bacteria, UniProt C7C422); assay: Inhibition of Metallo-beta-lactamase NDM-1 (unknown origin)
[2] = molecular target: T1, Metallo-beta-lactamase type 2; assay: Inhibition of N-terminal NDM-1 (unknown origin) extracted from Escherichia coli BL21
[3] = molecular target: T1, Metallo-beta-lactamase type 2; assay: Binding affinity to N-terminal NDM-1 (unknown origin) extracted from Escherichia coli BL21 assessed as inhibition constant
[4] = test system: Escherichia coli; assay: Antibacterial activity against Escherichia coli expressing NDM-1 assessed as bacterial growth inhibition in presence of IPM; type: functional
[5] = test system: Klebsiella pneumoniae; assay: Antibacterial activity against Klebsiella pneumoniae expressing VIM-1 assessed as bacterial growth inhibition in presence of IPM; type: functional
[6] = molecular target: T1, Metallo-beta-lactamase type 2; assay: Inhibition of NDM-1 (unknown origin)
[7] = test system: Serratia marcescens; assay: Antibacterial activity against Serratia marcescens expressing IMP-1 assessed as bacterial growth inhibition in presence of IPM; type: functional
[8] = test system: Escherichia coli; assay: Antibacterial activity against carbapenem-resistant Escherichia coli IHMA 997800 infected in mouse assessed as fold reduction in bacterial load at 10 mg/kg, sc measured for 24 hrs in presence of Meropenem; type: functional
[9] = test system: Klebsiella pneumoniae; assay: Antibacterial activity against carbapenem-resistant Klebsiella pneumoniae B68-1 infected in mouse assessed as fold reduction in bacterial load at 10 mg/kg, sc measured for 24 hrs in presence of Meropenem; type: functional
[10] = test system: Escherichia coli; assay: Antibacterial activity against carbapenem-resistant Escherichia coli […] infected in mouse assessed as fold reduction in bacterial load at 10 mg/kg, sc measured for 24 hrs in presence of Meropenem; type: functional
[11] = test system: Escherichia coli; assay: Antibacterial activity against carbapenem-resistant Escherichia coli IR57 infected in mouse assessed as fold reduction in bacterial load at 10 mg/kg, sc measured for 24 hrs in presence of Meropenem; type: functional
[12] = test system: Serratia marcescens; assay: Antibacterial activity against Serratia marcescens expressing IMP-1 assessed as bacterial growth inhibition; type: functional
[13] = test system: Klebsiella pneumoniae; assay: Antibacterial activity against Klebsiella pneumoniae expressing VIM-1 assessed as bacterial growth inhibition; type: functional
[14] = test system: Escherichia coli; assay: Antibacterial activity against Escherichia coli expressing NDM-1 assessed as bacterial growth inhibition; type: functional

T1 sequence (C7C422 whole entry): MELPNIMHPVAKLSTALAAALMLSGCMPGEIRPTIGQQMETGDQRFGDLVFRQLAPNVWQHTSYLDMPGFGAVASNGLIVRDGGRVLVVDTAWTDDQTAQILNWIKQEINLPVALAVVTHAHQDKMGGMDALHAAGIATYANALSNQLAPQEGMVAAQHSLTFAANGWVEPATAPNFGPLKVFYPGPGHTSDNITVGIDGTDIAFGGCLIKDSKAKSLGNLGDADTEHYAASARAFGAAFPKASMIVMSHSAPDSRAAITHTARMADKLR

Structure (SMILES): Nc1cccc(-c2cc(C(=O)O)nc(C(=O)O)c2)c1
IC50 ([2]; read-out: IC50): 0.08 µM

Structure (SMILES): N[C@H](CN[C@H](CN[C@@H](CC(=O)O)C(=O)O)C(=O)O)C(=O)O
IC50 [1]: 4 µM

Structure (SMILES): C[C@H](CS)C(=O)N1CCc2ccccc2[C@@H]1C(=O)O
IC50 [1]: 4.6 µM

Structure (SMILES): C[C@H](CS)C(=O)N1CCC[C@H](C(=O)O)C1
IC50 [1]: 28.4 µM

Structure (SMILES): C[C@H](CS)C(=O)N1CCCCC[C@@H]1C(=O)O
IC50 [1]: 20.4 µM

Structure (SMILES): C[C@H](CS)C(=O)N1Cc2ccccc2C[C@@H]1C(=O)O
IC50 [1]: > 300 µM

Structure (SMILES): C[C@H](CS)C(=O)N1CCC(C(=O)O)CC1
IC50 [1]: 4.9 µM

Structure (SMILES): NS(=O)(=O)c1nccc(-c2ccc(CO)cc2)c1-c1nn[nH]n1
MITC95 [4]: 0.558 µM
MITC95 [5]: 11.76 µM
IC50 [6]: 0.035 µM
MITC95 [7]: 5.19 µM

Structure (SMILES): Nc1cc(-c2nnn[nH]2)c(S(N)(=O)=O)cc1S(N)(=O)=O
IC50 [6]: 0.033 µM

Structure (SMILES): Cc1ccc(-c2cccc(S(N)(=O)=O)c2-c2nnn[nH]2)cc1
MITC95 [4]: 1.48 µM
MITC95 [5]: 127 µM
MITC95 [7]: 13.8 µM

Structure (SMILES): N=C(N)NNC(=O)Nc1c(F)cc(S(=O)(=O)Nc2scnc2C(=O)O)cc1F
Ki [3]: 0.04 µM

Structure (SMILES): COc1ccc(Cl)cc1-c1c(C(=O)O)[nH]c2c1CCc1ccccc1-2
IC50 ([2]; read-out: IC50): 0.05 µM

Structure (SMILES): C[C@@H](c1cccc2c(-c3ccc(CS(C)(=O)=O)c(F)c3)c(C(=O)O)[nH]c12)N1CC2(CC(CN)C2)OC1=O (stereo not given in full)
IC50 ([2]; read-out: pIC50 (converted)): < 0.001 µM
fold change (FC) [8]: 7
fold change (FC) [9]: 7
fold change (FC) [10]: 7
fold change (FC) [11]: 7

Structure (SMILES): OCC(S)CS (stereo not given) [DIMERCAPROL]
IC50 [1]: 1.3 µM

Structure (SMILES): C[C@@H](O)[C@H]1C(=O)N2C(C(=O)O)=C(SCCNC=N)C[C@H]12 [IMIPENEM ANHYDROUS]
MITC95 [12]: 16 µg/mL
MITC95 [13]: 64 µg/mL
MITC95 [14]: 32 µg/mL

Structure (SMILES): O=C(O)CN1CCN(CC(=O)O)CCN(CC(=O)O)CCN(CC(=O)O)CC1 [TETRAXETAN]
IC50 [1]: 1.34 µM

Structure (SMILES): O=C(O)CNC(=O)C(CS)Cc1ccccc1 (stereo not given) [THIORPHAN]
IC50 [1]: 1.8 µM

The remaining lines, values ahead:

IC50 [1]: 0.28 µM
Structure (SMILES): O=C(O)CN1CCN(CC(=O)O)CCN(CC(=O)O)CC1

Ki [3]: 0.8 µM
Structure (SMILES): O=C(O)c1ncsc1NS(=O)(=O)c1cccnc1

IC50 [1]: 11.1 µM
Structure (SMILES): C[C@H](CS)C(=O)N1CCC(C(N)=O)CC1

IC50 [1]: 27.9 µM
Structure (SMILES): C[C@H](CS)C(=O)N1CCC(CC(N)=O)CC1

IC50 [1]: 6.9 µM
Structure (SMILES): C[C@H](CS)C(=O)N1CCCC[C@@H]1C(=O)O

IC50 [1]: 75 µM
Structure (SMILES): O=C(O)[C@H]1CCCN1C(=O)C(CS)CS

IC50 [1]: 19.8 µM
Structure (SMILES): C[C@H](CS)C(=O)N1CCC(CC(=O)O)CC1
